# Test results as given in US8597645B2, “Cancer treatment with endothelin receptor antagonists” (New York University, priority 1999, dated 2013).
# pEC50, pIC50: −log10 of the molar value. Read-outs that look alike come from different tables or passages of the source. Where a SMILES comes first, the peptide text is derived from it.
# Assays:
# [1] = system: E-cadherin protein levels in melanocytes (FM2030) and melanoma cells (SKMEL28); assay: Down-regulation of E-cadherin by ET-1, immunoblot analysis of lysates; format: cell-based, human; conditions: for blocking of E-cadherin down-regulation by ET-1: antagonist 100 nM added one hour before 10 nM ET-1, 40 hours
# Experimental: A375, WM-266-4 and WM-1 15 melanoma cells were purchased from the ATCC. Culture conditions were as described in I. M. Shih, et al., Am. J. Pathol., 145:837-45 (1994). Two weeks prior to ET-stimulation, water soluble 12,13-phorbol dibutyrate was substituted for phorbol 12-myristate, 13-acetate in melanocyte medium. ET stimulations of melanocytes were carried out in phorbol-free medium. Cell pellets were incubated for 15 minutes in 6 pellet volumes of RIPA buffer (1% NP4O, 0.5% deoxycholic acid, 10 mM Tris pH 8.3, 150 mM NaCl, 50 mM NaF, 0.2 mM sodium vanadate, 1× protease inhibitors-Boehringer complete). After centrifugation, lysates were quantitated using protein assay reagent (Biorad). 2.5 ug of protein per sample were subjected to SDS-PAGE unless samples were prepared from A375, WM-266-4 or WM-1 15 cells in which case 100 ug protein per sample was used. BQ123 and BQ788 at 100 nM were added to cells one hour before ET-1 addition. Antibodies: anti-E-cadherin (Transduction labs), anti-mouse IgG-HRP (Santa-Cruz). ECL detection system (Amersham). ET-1, ET-3, BQ123, BQ788 (Peninsula labs).
# Human neonatal melanocytes (FM2030) and human melanoma cells (SKMEL28) were stimulated with 10 nM ET-1 over a 40 hour time course and protein lysates were examined for E-cadherin protein levels by immunoblot analysis (FIG. 1A). […] E-cadherin protein levels returned to baseline by 72 hours. A delayed and prolonged response to ET-1 has also been reported in other cell types. R. Marsault, et al., Biochem. Biophys. Res. Commun., 179:1408-3 (1991). […] In addition to E-cadherin, expression of the adhesion molecules ICAM 1, CD44 and N-cadherin is altered during melanoma development. M. Y. Hsu, et al., J. Investig. Dermatol. Symp. Proc., 1:188-94 (1996); S. Vermeulen, et al., Pathol. Res. Pract, 192:694-707 (1996).
# There are two well characterized ET-1 receptors, an A subtype (ETA) and a B subtype (ETB). A. G. Baynash, et al., Cell, 79:1277 85 (1994). Both subtypes are expressed by melanocytes while most melanoma cells express only ETB. ET-1 binds with equal affinity to both receptor subtypes. G. Imokawa, et al., Biochem. J., 314:305-12 (1996). To determine which subtype mediated the observed response, the assay was repeated in the presence of a selective ETA antagonist (BQ123) and a selective ETB antagonist (BQ788).
# [2] = system: β-catenin and p120CTN protein levels in melanocytes and melanoma cells; assay: Down-regulation of β-catenin and p120CTN by ET-1, immunoblot of crude membrane fractions; format: cell-based, human
# Experimental: To analyze membrane-associated catenin proteins, crude membrane fractions were prepared as follows: cell pellets were resuspended in 6 pellet volumes of buffer A (10 mM HEPES pH 7.5, 1.5 mM MgCl2, 10 mM KCl, 10 mM NaF, 0.2 mM sodium vanadate, 1× protease inhibitors-Boehringer complete) and allowed to swell for 10 min. Cell membranes were disrupted by vortexing for 10 s and membranes pelleted by centrifugation for 10 s. Supernatants containing cytoplasmic proteins were discarded. Membrane pellets were solubilized in RIPA buffer as described above and snap frozen on dry ice. 0.5 ug and 2.5 ug of protein lystes were used to examine levels of β-catenin and p120^CTN proteins respectively. Antibodies: anti-β-catenin and anti-p120^CTN (Transduction labs).
# The catenins are cytoplasmic proteins that bind E-cadherin and are critical for E-cadherin function in cellular adhesion. J. M. Daniel, et al., Bloessays, 19: 883-91 (1997). Considering the importance of the catenins in E-cadherin function, the effect of ET-1 stimulation upon the levels of these proteins was studied. In both melanocytes and melanoma cells, ET-1 stimulation decreased β-catenin protein levels and increased its electrophoretic mobility (FIG. 2A). The kinetics of this response correlated well with those of E-cadherin down-regulation. BQ788, a selective ETB antagonist, blocked ET-1 mediated down-regulation of β-catenin (FIG. 2B).
# [3] = system: caspase-8, caspases-3 and 7 in FM2030 and SKMEL28 cells; assay: Caspase activation by ET-1, immunoblot of crude cytoplasmic extracts; format: cell-based, human
# Experimental: (§1) All caspase inhibitors contained a 16 amino-acid signal peptide derived from Kaposi Fibroblast Growth Factor to confer cell permeability (Calbiochem). Inhibitors were added to cells 34 hours post ET-1 stimulation and cells harvested at 40 hours. Crude cytoplasmic fractions were prepared as described for FIG. 2, except that supernatants containing cytoplasmic proteins were transferred to new tubes, supplemented with 0.11 volumes of buffer B (0.3M HEPES pH 7.9, 1.4M KCl, 0.03M MgCl2) and clarified by centrifugation. 10 ug of protein per sample was analyzed for caspase activation. Antibodies: Anti-caspase-8 antibody (UBI), Anti-caspase-3 and 7 (Transduction labs). Super Signal West Femto Maximum Sensitivity Substrate (PIERCE) was used for chemiluminescent detection of caspase proteins. Membranes were initially developed in a 1:5 dilution of the reagent made in H2O. If necessary, blots were briefly rinsed in TBS (10 mM Tris pH 8.0, 150 mM NaCl) and redeveloped with undiluted reagent for visualization of small fragments.
# To determine whether caspase activation played a role in down-regulation of E-cadherin by ET-1, the assay was repeated in the presence of cell permeable inhibitors of a variety of different caspases (FIG. 3A). Strikingly, inhibitors containing the sequences IETD (inhibition of caspase-8) (SEQ ID NO:1) and DEVD (inhibition of caspases-3, 7, 8) (SEQ ID NO:2) were able to block down-regulation of E-cadherin by ET-1. The ‘DEVD’ (SEQ ID NO:2) inhibitor required a 10 fold higher concentration than the ‘IETD’ (SEQ ID NO:1) inhibitor in order to be effective (FIG. 3A. lower panel). Inhibitors specific for caspases 1, 4, 5, 6, 9 and 10 were without effect. […] Timepoints of maximal E-cadherin down-regulation coincided with the appearance of catalytically active caspase-8 subfragments (FIG. 3C, lower panel). Treatment of cells with a cell permeable inhibitor of caspase-8 prevented its proteolytic processing providing further evidence that caspase-8 activation is required for down-regulation of E-cadherin, β-catenin and p120^CTN by ET-1.
# [4] = system: melanocytes and melanoma cells; assay: Immunofluorescence: subcellular localization of E-cadherin and β-catenin after ET-1; format: cell-based, human; conditions: 10 nM ET-1, 96 hours
# Experimental: Cells were seeded onto collagen coated glass chamber slides in medium supplemented with 10 nM ET-1. At 48 hours, medium was aspirated and replaced with fresh ET-1 supplemented medium. At 96 hours, cells were fixed for 10 minutes in 3.7% formaldehyde/1 mM CaCl2/PBS, permeabilized for 10 minutes in 0.2% Triton X-100/PBS and blocked in 1% BSA/PBS for 10 minutes. Staining with E-cadherin and β-catenin antibodies diluted 1:50 in blocking buffer was performed for 45 minutes followed by a 30 minute incubation with goat-anti-mouse IgG-Cy3 (Jackson Immunoresearch labs) diluted 1:200 in blocking buffer. Cells were washed with PBS in between permeabilization and fixation steps and after antibody incubations.
# isolated vascular strips = conditions: read-out: EC50 as contractile agent; cited from earlier work
# ETA receptors = conditions: cited from earlier work; for pIC50: read-out: IC50, inhibition of 125I-labeled ET-1 binding
# ETB receptors = conditions: cited from earlier work; for inhibition of 125I-labeled ET-1 binding: non cardiovascular tissues: kidney, adrenal gland, cerebellum
# [5] = system: caspases (E-cadherin, β-catenin, p120CTN read-out) in SKMEL28 and FM2030 cells; assay: Cell permeable caspase inhibitors on down-regulation of E-cadherin and catenins by ET-1; format: cell-based, human; conditions: inhibitors added 34 hours post ET-1, harvested at 40 hours
# Experimental: as §1
# To determine whether caspase activation played a role in down-regulation of E-cadherin by ET-1, the assay was repeated in the presence of cell permeable inhibitors of a variety of different caspases (FIG. 3A). […]
# [6] = ET-1 stimulation, melanocytes and melanoma cells
molecule,measurement,setting,value
CCCC[C@@H](NC(=O)[C@@H](Cc1cn(C(=O)OC)c2ccccc12)NC(=O)[C@H](CC(C)(C)C)NC(=O)N1[C@H](C)CCC[C@@H]1C)C(=O)O [BQ788],blocking of E-cadherin down-regulation by ET-1,[1],blocked
same,blocking of ET-1 mediated down-regulation of β-catenin,[2]; ETB antagonist with ET-1,blocked
ET-1: 21 amino-acid peptide secreted by keratinocytes; binds ETA and ETB,E-cadherin protein level after ET-1 stimulation,"[1]; 10 nM ET-1, by 40 hours, FM2030 and SKMEL28",marked decrease
same,time at which E-cadherin protein levels returned to baseline,"[1]; 10 nM ET-1, FM2030 and SKMEL28",≤ 72 h
same,dose response of E-cadherin down-regulation,"[1]; 0.5, 1.0, 10 nM ET-1, 40 hours, melanocytes and melanoma cells",dose responsive
same,"protein levels of adhesion molecules ICAM 1, CD44 and N-cadherin",[1]; immunoblot of lysates after ET-1,no effect
same,E-cadherin mRNA levels,[1]; northern blot analysis,no ET-1 dependent decrease
same,down-regulation of E-cadherin in additional cell lines,[1]; one additional melanocyte line (CL-NHEM) and 4 additional melanoma lines,down-regulation of E-cadherin was observed in all lines except in A375 and WM 115
same,p120CTN protein level and electrophoretic mobility,[2]; ET-1 stimulation,down-regulated and increased the electrophoretic mobility
same,β-catenin electrophoretic mobility,[2]; [6],increased
same,β-catenin protein levels,[2]; [6],decreased
same,β-catenin mRNA levels,[2]; northern blot analysis,failed to reveal an ET-1 dependent decrease
same,activation of distal caspases (caspases-3 and 7),[3]; SKMEL28 and FM2030 cells,failure of ET-1 to activate distal caspases
same,duration of ET-1 dependent proteolytic processing of caspase-8,[3]; after ET-1 stimulation,46 h
same,time at which ET-1 dependent proteolytic processing of caspase-8 was first detectable,[3]; after ET-1 stimulation,approximately 36 hours
same,induction of apoptosis,[3]; melanocytes and melanoma cells,failure to induce apoptosis
same,E-cadherin staining in melanocytes,[4],loss of concentration of E-cadherin staining at points of cell:cell contact
same,E-cadherin staining in melanoma cells,[4],markedly decreased intensity of membranous staining
same,β-catenin staining in melanocytes,[4],loss of concentration of β-catenin at lateral cell borders and at points of cell: cell contact
same,β-catenin staining in melanoma cells,[4],loss of most of the membranous staining
same,melanocyte morphology,[4]; bright field micrographs,"large nuclei with prominent nucleoli, abundant cytoplasm, polygonal morphology"
same,pEC50,isolated vascular strips,9.40
same,potency of inhibition of 125I-labeled ET-1 binding relative to ET-3,ETA receptors; cardiovascular tissues,forty to seven hundred times more potently
same,inhibition of 125I-labeled ET-1 binding,ETB receptors,inhibited to the same extent
"ET-3: ET isopeptide, a selective ETB agonist",down-regulation of E-cadherin by ET-3,"[1]; 10 nM ET-3, 40 hours",potent down-regulator
same,inhibition of 125I-labeled ET-1 binding,ETB receptors,inhibited to the same extent
cyclo(D-Glu-L-Ala-allo-D-Ile-L-Leu-D-Trp) [BE-18257B],pIC50,ETA receptors; aortic smooth muscle,5.85
same,pIC50,ETA receptors; cultured aortic smooth muscle cells,6.30
same,pIC50,ETA receptors; ventricle membranes,6.10
same,pIC50,"ETB receptors; tissues in which ETB receptors predominate, read-out: concentration up to which binding is not inhibited",< 4.00
"CC(C)C[C@@H]1NC(=O)[C@@H](C(C)C)NC(=O)[C@@H]2CCCN2C(=O)[C@@H](CC(=O)O)NC(=O)[C@@H](Cc2c[nH]c3ccccc23)NC1=O [BQ123, cyclo(D-Asp-Pro-D-Val-Leu-D-Trp)] (HELM PEPTIDE1{L.[dW].[dD].P.[dV]}$PEPTIDE1,PEPTIDE1,1:R1-5:R2$$$V2.0)",blocking of E-cadherin down-regulation by ET-1,[1],not
IETD,blocking of down-regulation of E-cadherin by ET-1,[5],able to block
